Where two headings read alike, the source gives them in different places.

Test [1] relates to plasma lipids (triglycerides, total cholesterol). As to the kind of experiment: hypolipaemic activity in vivo in a diet-induced model of combined hyperlipaemia in the hamster. The arrangement: species or system Golden Syrian hamster. Conditions: 200 mg/kg/day per os, 1 week; for change in vivo at 200 mg/kg: Mesocricetus auratus, po, 168 h, hamsters on lipid-rich diet, versus control group, bezafibrate: mean ± sem of five experiments; for hypocholesterolaemic effect compared with bezafibrate (in words) / triglyceride-lowering effectiveness compared with bezafibrate (in words): hamster, bezafibrate 200 mg/kg/day. As for the experimental part: The hypolipaemic activity of certain representative compounds of the invention was evaluated in vivo in a diet-induced model of combined hyperlipaemia in the hamster.
Golden Syrian hamsters are given a diet rich in lipids (standard diet+0.5% cholesterol+10% cocoa oil) for 3 weeks before the beginning of treatment. That diet induces hypercholesterolaemia and hypertriglyceridaemia.
The products are prepared in tragacanth gum and are administered per os by forced gastric feeding for 1 week at a dose of 200 mg/kg/day. Each product is tested on a group of 6 animals. A placebo group (control) and a group of animals treated with a reference product (bezafibrate at a dose of 200 mg/kg/day) are included in each experiment.
At the end of the treatment, the animals are anaesthetised with ether. Blood is removed by abdominal puncture and the triglycerides and total cholesterol in the serums are determined. Five independent experiments were carried out in accordance with that protocol in order to evaluate the hypolipaemic effect of thirteen compounds of this invention.
The results are shown in Table B. The effect of the treatment is expressed as a percentage variation by comparison with the control group, calculated from the means of the absolute values of triglycerides and of total cholesterol. A negative value thus reflects a hypolipaemic effect of the treatment indicated. The values shown for bezafibrate represent the mean values (±sem) of five experiments.

The test system of test [2] is human low density lipoproteins (LDLs). As to the kind of experiment: protective activity against oxidation of human LDLs induced by copper sulphate (TBARS determination). Conditions: copper sulphate 5 μM, 3 hours at 37° C., read-out: IC50, protection against the oxidation of LDLs. Format: biochemical. Here is the method: The dose-effect relationship of those compounds was compared with that of probucol and a soluble analogue of vitamin E, trolox.
The anti-oxidant activity of the compounds was measured according to the method of Wallin et al. (Analytical Biochemistry, 1993, 208, 10-15).
Human LDLs are incubated for 3 hours at 37° C. in the presence of an oxidising agent, copper sulphate at a concentration of 5 μM, and of the compound to be tested at concentrations ranging from 10^-8 M to 2.5×10^-6 M. A non-oxidised control (LDLs only) and an oxidised control (LDLs plus copper sulphate) are also included in each of the series of tests.
The products of the LDL oxidation reaction are quantified by the colorimetric determination of "thiobarbituric acid reactive substances" (TBARS).
The protective activity of the tested compounds is expressed by the IC50 value, which corresponds to the concentration of product required to inhibit by 50% the oxidation of LDLs observed in the absence of product. The IC50 value was calculated from the dose-response curve.

[3] abbreviates: read-out: Total cholesterol (% variation/control).
Setting [4] is: read-out: Triglycerides (% variation/control).

As to `CC(C)(Oc1ccc(CCNC(=O)c2ccc(Cl)cc2)cc1)C(=O)O` [Bezafibrate, bezafibrate, reference compound], the change in vivo at 200 mg/kg was -48 ± 4% in test [1] (setting [3]) and -46 ± 19% in test [1] (setting [4]).

On to `Cc1cc(OCCc2ccc(OCCCC(C)(C)C(=O)O)cc2)c(C)c(C)c1O` [Example 9, 2,2-dimethyl-5-{4-[2-(4-hydroxy-2,3,5-trimethylphenoxy)ethyl]phenoxy}pentanoic acid], for which the IC50 (as a rule, the point on the concentration scale where inhibition reaches its midpoint) in test [2] was found to be 200 nM.

Consider `Cc1c(C)c2c(c(C)c1O)CCC(C)(CCCCOc1ccc(OCCCC(C)(C)C(=O)O)cc1)O2` (racemic) [Example 18, R,S -2,2-dimethyl-5-{4-[4-(6-hydroxy-2,5,7,8-tetramethyl-3,4-dihydrobenzopyran-2-yl)butyloxy]phenoxy}pentanoic acid], for which the change in vivo at 200 mg/kg in test [1] (setting [3]) was -61%; in test [1] (setting [4]) it was -79%. Also, in test [2], the IC50 is 720 nM.

For `CC(C)(CCCOc1ccc(CCSc2cc(C(C)(C)C)c(O)c(C(C)(C)C)c2)cc1)C(=O)O` [Example 1, 2,2-Dimethyl-5-{4-[2-(3,5-di-tert-butyl-4-hydroxyphenylthio)ethyl]phenoxy}pentanoic acid], the IC50 in test [2] came out at 420 nM.

For `Cc1cc(OCCCc2ccc(OCCCC(C)(C)C(=O)O)cc2)c(C)c(C)c1O` [Example 15, 2,2-dimethyl-5-{4-[3-(4-hydroxy-2,3,5-trimethylphenoxy)propyl]phenoxy}pentanoic acid], in test [1], the “hypocholesterolaemic effect compared with bezafibrate (in words)” value is listed as “hypocholesterolaemic effect at least as great as bezafibrate”. The “triglyceride-lowering effectiveness compared with bezafibrate (in words)” value in test [1] was “statistically at least as effective as bezafibrate”. Besides, the change in vivo at 200 mg/kg is -77% in test [1] (setting [3]) and -93% in test [1] (setting [4]). Besides, the IC50 in test [2] was 97 nM.

As to `Cc1cc(SCCCOc2ccc(OCCCC(C)(C)C(=O)O)cc2)c(C)c(C)c1O` [Example 6, 2,2-dimethyl-5-{4-[3-(4-hydroxy-2,3,5-trimethylphenylthio)propyloxy]phenoxy}pentanoic acid], the figures for the change in vivo at 200 mg/kg in test [1] (setting [3]) and in test [1] (setting [4]) were -39% and -59%, respectively. Also, the concentration for half-maximal inhibition (IC50) in test [2] stood at 170 nM.

On to `CC(C)(CCCOc1ccc(OCCCOc2cc(C(C)(C)C)c(O)c(C(C)(C)C)c2)cc1)C(=O)O` [Example 12, 2,2-dimethyl-5-{4-[3-(3,5-di-tert-butyl-4-hydroxyphenoxy)propyloxy]phenoxy}pentanoic acid], for which, in test [1], the “hypocholesterolaemic effect compared with bezafibrate (in words)” value was “hypocholesterolaemic effect at least as great as bezafibrate” and the “triglyceride-lowering effectiveness compared with bezafibrate (in words)” value is recorded as “statistically at least as effective as bezafibrate”. Also, the change in vivo at 200 mg/kg in test [1] (setting [3]) is -63%. For the same compound, in test [1] (setting [4]), the change in vivo at 200 mg/kg was -84%. Moreover, in test [2], the IC50 was 640 nM.

Consider `CC(C)(CCCOc1ccc(CCCOc2cc(C(C)(C)C)c(O)c(C(C)(C)C)c2)cc1)C(=O)O` [Example 10, 2,2-dimethyl-5-{4-[3-(3,5-di-tert-butyl-4-hydroxyphenoxy)propyl]phenoxy}pentanoic acid], for which, in test [2], the IC50 was 240 nM.

As for `CC(C)(CCCOc1ccc(CCOc2cc(C(C)(C)C)c(O)c(C(C)(C)C)c2)cc1)C(=O)O` [Example 16, 2,2-dimethyl-5-{4-[2-(4-hydroxy-3,5-di-tert-butylphenoxy)ethyl]phenoxy}pentanoic acid], the values for the change in vivo at 200 mg/kg in test [1] (setting [3]) and in test [1] (setting [4]) were -66% and -54%, respectively. Moreover, the IC50 in test [2] was determined as 770 nM.

On to `Cc1cc(SCCCc2ccc(OCCCC(C)(C)C(=O)O)cc2)c(C)c(C)c1O` [Example 4, 2,2-dimethyl-5-{4-[3-(4-hydroxy-2,3,5-trimethylphenylthio)propyl]phenoxy}pentanoic acid], for which the change in vivo at 200 mg/kg is -48% in test [1] (setting [3]) and -77% in test [1] (setting [4]). For the same compound, the IC50 in test [2] was found to be 460 nM.

As to `CC(C)(CCCOc1cccc(CCCc2cc(C(C)(C)C)c(O)c(C(C)(C)C)c2)c1)C(=O)O` [Example 20, 2,2-dimethyl-5-{3-[3-(4-hydroxy-3,5-di-tert-butylphenyl)propyl]phenoxy}pentanoic acid], the values for the change in vivo at 200 mg/kg in test [1] (setting [3]) and in test [1] (setting [4]) were -58% and -71%, respectively. For the same compound, in test [2], the half-inhibitory concentration (IC50) was 1100 nM.

As for `Cc1cc(OCCCOc2ccc(OCCCC(C)(C)C(=O)O)cc2)c(C)c(C)c1O` [Example 11, 2,2-dimethyl-5-{4-[3-(4-hydroxy-2,3,5-trimethylphenoxy)propyloxy]phenoxy}pentanoic acid], the change in vivo at 200 mg/kg in test [1] (setting [3]) is -55%; in test [1] (setting [4]), -60%. Besides, the IC50 in test [2] was 190 nM.

On to `CC(C)(CCCOc1cccc(CCSc2cc(C(C)(C)C)c(O)c(C(C)(C)C)c2)c1)C(=O)O` [Example 8, 2,2-dimethyl-5-{3-[2-(3,5-di-tert-butyl-4-hydroxyphenylthio)ethyl]phenoxy}pentanoic acid], for which the change in vivo at 200 mg/kg in test [1] (setting [3]) and in test [1] (setting [4]) was -59% in each case. Further, the IC50 in test [2] was found to be 380 nM.

As for `Cc1cc(SCCc2cccc(OCCCC(C)(C)C(=O)O)c2)c(C)c(C)c1O` [Example 7, 2,2-dimethyl-5-{3-[2-(4-hydroxy-2,3,5-trimethylphenylthio)ethyl]phenoxy}pentanoic acid], in test [1], the “hypocholesterolaemic effect compared with bezafibrate (in words)” value is listed as “hypocholesterolaemic effect at least as great as bezafibrate” and the “triglyceride-lowering effectiveness compared with bezafibrate (in words)” value is on record as “statistically at least as effective as bezafibrate”. For the same compound, the change in vivo at 200 mg/kg in test [1] (setting [3]) was -47%. Moreover, in test [1] (setting [4]), the change in vivo at 200 mg/kg is -83%. Besides, the IC50 in test [2] was determined as 68 nM.

With `Cc1c(C)c2c(c(C)c1O)CCC(C)(C(=O)O)O2` (stereo not drawn) [Trolox, trolox, reference compound], the IC50 in test [2] amounted to 1600 nM.

For the compound `Cc1c(C)c2c(c(C)c1O)CCC(C)(C=CCCOc1ccc(OCCCC(C)(C)C(=O)O)cc1)O2` (racemic) [Example 17, R,S-2,2-dimethyl-5-{4-[4-(6-hydroxy-2,5,7,8-tetramethyl-3,4-dihydrobenzopyran-2-yl)but-3-enyloxy]phenoxy}pentanoic acid], the IC50 in test [2] worked out at 960 nM.

`CC(C)(CCCOc1ccc(CCCSc2cc(C(C)(C)C)c(O)c(C(C)(C)C)c2)cc1)C(=O)O` [Example 3, 2,2-dimethyl-5-{4-[3-(3,5-di-tert-butyl-4-hydroxyphenylthio)propyl]phenoxy}pentanoic acid]: in test [1], the “hypocholesterolaemic effect compared with bezafibrate (in words)” value was “hypocholesterolaemic effect at least as great as bezafibrate” and the “triglyceride-lowering effectiveness compared with bezafibrate (in words)” value is recorded as “statistically at least as effective as bezafibrate”. In addition, the change in vivo at 200 mg/kg in test [1] (setting [3]) is -77%. The change in vivo at 200 mg/kg in test [1] (setting [4]) was -87%. Moreover, the IC50 in test [2] is 530 nM.

As for `CC(C)(CCCOc1cccc(CCOc2cc(C(C)(C)C)c(O)c(C(C)(C)C)c2)c1)C(=O)O` [Example 13, 2,2-dimethyl-5-{3-[2-(3,5-di-tert-butyl-4-hydroxyphenoxy)ethyl]phenoxy}pentanoic acid], in test [1], the “hypocholesterolaemic effect compared with bezafibrate (in words)” value is given as “hypocholesterolaemic effect at least as great as bezafibrate” and the “triglyceride-lowering effectiveness compared with bezafibrate (in words)” value is listed as “statistically at least as effective as bezafibrate”. Besides, in test [1] (setting [3]), the change in vivo at 200 mg/kg was -68%. In addition, the change in vivo at 200 mg/kg in test [1] (setting [4]) is -84%. Further, the concentration for half-maximal inhibition (IC50) in test [2] is 300 nM.

Take `Cc1c(C)c2c(c(C)c1O)CCC(C)(CCCc1cccc(OCCCC(C)(C)C(=O)O)c1)O2` (racemic) [Example 19, R,S-2,2-dimethyl-5-{3-[3-(6-hydroxy-2,5,7,8-tetramethyl-3,4-dihydrobenzopyran-2-yl)-propyl]phenoxy}pentanoic acid]: in test [2], the IC50 came to 680 nM.

On to `CC(C)(CCCOc1ccc(OCCCSc2cc(C(C)(C)C)c(O)c(C(C)(C)C)c2)cc1)C(=O)O` [Example 5, 2,2-dimethyl-5-{4-[3-(3,5-di-tert-butyl-4-hydroxyphenylthio)propyloxy]phenoxy}pentanoic acid], for which, in test [2], the half-inhibitory concentration (IC50) worked out at 550 nM.

Regarding `CC(C)(Sc1cc(C(C)(C)C)c(O)c(C(C)(C)C)c1)Sc1cc(C(C)(C)C)c(O)c(C(C)(C)C)c1` [Probucol, probucol, reference compound], the half-inhibitory concentration (IC50) in test [2] was 5800 nM.

Turning to `Cc1cc(OCCc2cccc(OCCCC(C)(C)C(=O)O)c2)c(C)c(C)c1O` [Example 14, 2,2-dimethyl-5-{3-[2-(4-hydroxy-2,3,5-trimethylphenoxy)ethyl]phenoxy}pentanoic acid], the half-inhibitory concentration (IC50) in test [2] is 88 nM.
